Results: US10988466B2, “Heterocyclic derivatives useful as SHP2 inhibitors” (Jacobio Pharmaceuticals Co., Ltd., priority 2017, dated 2021)

Target: T1, SHP2 (Homo sapiens, UniProt Q06124)
T1 sequence (Q06124 1-593): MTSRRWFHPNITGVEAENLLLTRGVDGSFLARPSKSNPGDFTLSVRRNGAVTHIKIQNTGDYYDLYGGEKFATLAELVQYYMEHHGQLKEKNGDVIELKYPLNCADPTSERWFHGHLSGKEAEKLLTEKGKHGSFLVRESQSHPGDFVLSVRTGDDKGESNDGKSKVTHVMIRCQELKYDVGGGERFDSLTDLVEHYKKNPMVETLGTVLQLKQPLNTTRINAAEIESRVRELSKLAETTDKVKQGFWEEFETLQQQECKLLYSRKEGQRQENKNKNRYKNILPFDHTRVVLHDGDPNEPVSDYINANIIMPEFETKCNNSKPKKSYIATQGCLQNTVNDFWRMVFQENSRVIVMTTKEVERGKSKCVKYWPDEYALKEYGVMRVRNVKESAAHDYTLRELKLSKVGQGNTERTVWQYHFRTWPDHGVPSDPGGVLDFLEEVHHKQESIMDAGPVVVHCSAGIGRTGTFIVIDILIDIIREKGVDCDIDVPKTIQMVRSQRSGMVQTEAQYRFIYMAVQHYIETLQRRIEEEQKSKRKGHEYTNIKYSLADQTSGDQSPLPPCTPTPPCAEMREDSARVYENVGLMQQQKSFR
Assay: biochemical
Conditions: read-out: SHP2 inhibition (%)@0.1 μM
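Note: compounds preincubated 30 min at room temperature in the assay mixture, activity referenced to a 0.5% (v/v) DMSO control taken as 100%, run in triplicate.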

Row | Structure (SMILES) | inhibition at 0.1 µM
1 | CN(C)c1nccc(Sc2cnc(N3CCC4(CC3)Cc3ccccc3[C@H]4N)cn2)c1Cl [Example 49, (S)-1′-(5-((3-chloro-2-(dimethylamino)pyridin-4-yl)thio)pyrazin-2-yl)-1,3-dihydrospiro[indene-2,4′-piperidin]-1-amine] | 85%
2 | Nc1nc(N2CCC3(CC2)Cc2c(O)cccc2[C@H]3N)cnc1Sc1ccnc(N)c1Cl [Example 138, (S)-1-amino-1′-(6-amino-5-((2-amino-3-chloropyridin-4-yl)thio)pyrazin-2-yl)-1,3-dihydrospiro[indene-2,4′-piperidin]-4-ol] | 82%
3 | Nc1nc(N2CCC3(CC2)Cc2ncccc2[C@H]3N)cnc1Sc1ccnc(F)c1Cl [Example 116, (S)-1′-(6-amino-5-((3-chloro-2-fluoropyridin-4-yl)thio)pyrazin-2-yl)-5,7-dihydrospiro [cyclopenta[b]pyridine-6,4′-piperidin]-5-amine] | 79%
4 | N[C@@H]1c2cccnc2CC12CCN(c1cnc(Sc3ccnc(O)c3Cl)cn1)CC2 [Example 135, (S)-4-((5-(5-amino-5,7-dihydrospiro [cyclopenta[b]pyridine-6,4′-piperidin]-1′-yl)pyrazin-2-yl)thio)-3-chloropyridin-2-ol] | 86%
5 | CC(=O)c1cccc2c1CC1(CCN(c3cnc(Sc4ccnc(N)c4Cl)c(N)n3)CC1)[C@@H]2N [Example 159, (S)-1-(1-amino-1′-(6-amino-5-((2-amino-3-chloropyridin-4-yl)thio)pyrazin-2-yl)-1,3-dihydrospiro[indene-2,4′-piperidin]-4-yl)ethan-1-one] | 88%
6 | COc1nccc(Sc2ncc(N3CCC4(CC3)Cc3ccccc3[C@H]4N)nc2N)c1Cl [Example 54, (S)-1′-(6-amino-5-((3-chloro-2-methoxypyridin-4-yl)thio)pyrazin-2-yl)-1,3-dihydrospiro [indene-2,4′-piperidin]-1-amine] | 69%
7 | NC(=O)Nc1ccc2c(c1)[C@@H](N)C1(CCN(c3cnc(Sc4ccnc(N)c4Cl)c(N)n3)CC1)C2 [Example 46, (S)-1-(1-amino-1′-(6-amino-5-((2-amino-3-chloropyridin-4-yl)thio)pyrazin-2-yl)-1,3-dihydrospiro [indene-2,4′-piperidin]-6-yl)urea] | 69%
8 | Nc1nc(N2CCC3(CC2)Cn2c(cccc2=O)C3N)cnc1Sc1ccnc(N)c1Cl (stereo not shown) [Example 141, 1-amino-1′-(6-amino-5-((2-amino-3-chloropyridin-4-yl)thio)pyrazin-2-yl)-3H-spiro[indolizine-2,4′-piperidin]-5(1H)-one] | 41%
9 | Nc1nc(N2CCC3(CC2)Cc2ccc(-n4ccnc4)cc2[C@H]3N)cnc1Sc1ccnc(N)c1Cl [Example 36, (S)-1′-(6-amino-5-((2-amino-3-chloropyridin-4-yl)thio)pyrazin-2-yl)-6-(1H-imidazol-1-yl)-1,3-dihydrospiro [indene-2,4′-piperidin]-1-amine] | 65%
10 | Nc1nc(N2CCC3(CC2)Cn2c(cccc2=O)[C@H]3N)cnc1Sc1ccnc(N)c1Cl [Example 70, (S)-1-amino-1′-(6-amino-5-((2-amino-3-chloropyridin-4-yl)thio)pyrazin-2-yl)-3H-spiro[indolizine-2,4′-piperidin]-5(1H)-one] | 30%
11 | Nc1nccc(Sc2cnc(N3CCC4(CC3)Cc3ccccc3C4N)cn2)c1Cl (stereo not shown) [Example 125, 1′-(5-((2-amino-3-chloropyridin-4-yl)thio)pyrazin-2-yl)-1,3-dihydrospiro [indene-2,4′-piperidin]-1-amine] | 86%

More lines, now with the values ahead:

Row | inhibition at 0.1 µM | Structure (SMILES)
12 | 30% | Nc1nc(N2CCC3(CC2)Cc2cnccc2[C@H]3N)cnc1Sc1ccnc(N)c1Cl [Example 22, (S)-1′-(6-amino-5-((2-amino-3-chloropyridin-4-yl)thio)pyrazin-2-yl)-5,7-dihydrospiro [cyclopenta[c]pyridine-6,4′-piperidin]-5-amine]
13 | 72% | COc1cccc2c1C(N)C1(CCN(c3cnc(Sc4ccnc(N)c4Cl)c(N)n3)CC1)C2 (stereo not shown) [Example 148, 1′-(6-amino-5-((2-amino-3-chloropyridin-4-yl)thio)pyrazin-2-yl)-7-methoxy-1,3-dihydrospiro[indene-2,4′-piperidin]-1-amine]
14 | 77% | Nc1nc(N2CCC3(CC2)Cc2ncccc2[C@H]3N)cnc1Sc1cnccc1Cl [Example 107, (S)-1′-(6-amino-5-((4-chloropyridin-3-yl)thio)pyrazin-2-yl)-5,7-dihydrospiro[cyclo-penta[b]pyridine-6,4′-piperidin]-5-amine]
15 | 83% | Nc1nc(N2CCC3(CC2)Cc2ncccc2[C@H]3N)cnc1Sc1ccnc(O)c1Cl [Example 136, (S)-4-((3-amino-5-(5-amino-5,7-dihydrospiro[cyclopenta[b]pyridine-6,4′-piperidin]-1′-yl)pyrazin-2-yl)thio)-3-chloropyridin-2-ol]
16 | 80% | Nc1cc(Sc2ncc(N3CCC4(CC3)Cc3ncccc3[C@H]4N)nc2N)c(Cl)cn1 [Example 113, (S)-1′-(6-amino-5-((2-amino-5-chloropyridin-4-yl)thio)pyrazin-2-yl)-5,7-dihydrospiro [cyclopenta[b]pyridine-6,4′-piperidin]-5-amine]
17 | 75% | Nc1nc(N2CCC3(CC2)Cc2ccc(Br)cc2[C@H]3N)cnc1Sc1ccnc(N)c1Cl [Example 28, (S)-1′-(6-amino-5-((2-amino-3-chloropyridin-4-yl)thio)pyrazin-2-yl)-6-bromo-1,3-dihydro-spiro[indene-2,4′-piperidin]-1-amine]
18 | 74% | Nc1nc(N2CCC3(CC2)Cc2cc(F)c(F)c(F)c2[C@H]3N)cnc1Sc1ccnc(N)c1Cl [Example 61, (S)-1′-(6-amino-5-((2-amino-3-choropyridin-4-yl)thio)pyrazin-2-yl)-5,6,7-trifluoro-1,3-dihydro-spiro[indene-2,4′-piperidin]-1-amine]
19 | 80% | Nc1nc(N2CCC3(CC2)Cc2ncc(Cl)cc2[C@H]3N)cnc1Sc1ccnc(N)c1Cl [Example 73, (S)-1′-(6-amino-5-((2-amino-3-chloropyridin-4-yl)thio)pyrazin-2-yl)-3-chloro-5,7-dihydro-spiro[cyclopenta[b]pyridine-6,4′-piperidin]-5-amine]
20 | 79% | CN(C)C(=O)c1ccc2c(c1)[C@@H](N)C1(CCN(c3cnc(Sc4ccnc(N)c4Cl)c(N)n3)CC1)C2 [Example 27, (S)-1-amino-1′-(6-amino-5-((2-amino-3-chloropyridin-4-yl)thio)pyrazin-2-yl)-N,N-dimethyl-1,3-dihydrospiro [indene-2,4′-piperidine]-6-carboxamide]
21 | 83% | Nc1nc(N2CCC3(CC2)Cc2cnccc2C3N)cnc1Sc1ccnc(N)c1Cl (stereo not shown) [Example 127, 1′-(6-amino-5-((2-amino-3-chloropyridin-4-yl)thio)pyrazin-2-yl)-5,7-dihydrospiro [cyclopenta[c]pyridine-6,4′-piperidin]-5-amine]
22 | 66% | CC(=O)N1CC(F)(F)c2c(Sc3ncc(N4CCC5(CC4)c4ccccc4C[C@H]5N)nc3N)cccc21 [Example 6, (R)-1-(4-((3-amino-5-(2-amino-2,3-dihydrospiro[indene-1,4′-piperidin]-1′-yl)pyrazin-2-yl)thio)-3,3-difluoroindolin-1-yl)ethan-1-one]
23 | 96% | Nc1nc(N2CCC3(CC2)Cc2ncccc2[C@H]3N)cnc1Sc1cccnc1C(F)(F)F [Example 114, (S)-1′-(6-amino-5-((2-(trifluoro-methyl)pyridin-3-yl)thio)pyrazin-2-yl)-5,7-dihydrospiro [cyclopenta [b]pyridine-6,4′-piperidin]-5-amine]
24 | 72% | COc1ccc2c(c1)CC1(CCN(c3cnc(Sc4ccnc(N)c4Cl)c(N)n3)CC1)C2=N [Example 143, 3-((2-amino-3-chloropyridin-4-yl)thio)-6-(1-imino-5-methoxy-1,3-dihydro-spiro[indene-2,4′-piperidin]-1′-yl)pyrazin-2-amine]
25 | 74% | Nc1nc(N2CCC3(CC2)Cc2cc(Br)ccc2C3N)cnc1Sc1ccnc(N)c1Cl (stereo not shown) [Example 129, 1′-(6-amino-5-((2-amino-3-chloropyridin-4-yl)thio)pyrazin-2-yl)-5-bromo-1,3-dihydro-spiro[indene-2,4′-piperidin]-1-amine]
26 | 81% | Nc1cccc(Sc2ncc(N3CCC4(CC3)Cc3ncccc3[C@H]4N)nc2N)c1Cl [Example 98, (S)-1′-(6-amino-5-((3-amino-2-chlorophenyl)thio)pyrazin-2-yl)-5,7-dihydrospiro [cyclopenta[b]pyridine-6,4′-piperidin]-5-amine]
27 | 69% | CP(C)(=O)c1cc2c(cc1F)CC1(CCN(c3cnc(Sc4ccnc(N)c4Cl)c(N)n3)CC1)[C@@H]2N [Example 41, (S)-(1-amino-1′-(6-amino-((2-amino-3-chloropyridin-4-yl)thio)pyrazin-2-yl)-5-fluoro-1,3-dihydrospiro[indene-2,4′-piperidin]-6-yl) dimethylphosphine oxide]
28 | 81% | N#Cc1ncccc1Sc1ncc(N2CCC3(CC2)Cc2ncccc2[C@H]3N)nc1N [Example 118, (S)-3-((3-amino-5-(5-amino-5,7-dihydrospiro [cyclopenta[b]pyridine-6,4′-piperidin]-1′-yl)pyrazin-2-yl)thio)picolinonitrile]
